Reference: US20040043483A1, “Novel tolerogenic dendritic cells and therapeutic uses therefor” (priority 2002, published 2004)

Tested on: C3H spleen T cells
Assay: One-way mixed leukocyte reaction (MLR), allostimulatory capacity by [3H]TdR uptake
Format: cell-based, mouse
Conditions: zVAD-fmk 100 μM added at the beginning of 3-day MLR
Experimental: Mixed leukocyte reaction (MLR). To determine the allostimulatory capacity of DCs, one-way MLR were performed with γ-irradiated (20 Gy) DCs or spleen cells from B10 (allogeneic) or C3H (syngeneic) mice as stimulators and nylon wool-purified C3H spleen T cells (2×105) as responders. Cultures (200 μl) were established in triplicate in 96-well round-bottom microculture plates and maintained in complete medium in 5% CO2 in air at 37° C. for 3-4 days. [^3H]TdR (1 μCi/well) was added for the final 18 h of culture, and incorporation of [^3H]TdR into DNA was assessed by liquid scintillation counting in an automated counter. Results are expressed as mean cpm±1 SD. In apoptosis inhibition experiments, a common caspase inhibitor peptide, benzyloxycarbonyl-Val Ala-Asp-fluoromethyl ketone (zVAD-fmk; Alexis, San Diego, Calif.), was added (100 μM) at the beginning of the MLR culture. DMSO served as a control.
Allostimulatory capacity of liver-derived DEC205^+B220^+CD19^−cells. The allostimulatory capacity of DEC205^+, B220^+, CD19^−cells derived from B 10 liver NPCs was determined in a one-way MLR, performed as described above. […] Despite the high expression of MHC and costimulatory molecules, liver-derived DEC205^+B220^+CD19^−cells display low allostimulatory capacity.

Substance: benzyloxycarbonyl-Val Ala-Asp-fluoromethyl ketone [zVAD-fmk]
- T cell proliferation induced by liver-derived DEC205+B220+CD19− cells after caspase inhibition: restored T cell proliferation
